Test system: chicken embryonic stem cells
Assay: Titration kill curve of chicken ES cells under puromycin or neomycin selection
Assay type: cell-based
Parameters: key to Morphology of cES cells: ES cells are present.; ES cells are differentiated.; gone: no morphologically recognizable cells are present
Method: In a preferred embodiment, the concentration of puromycin required for selecting transfected cells is calculated as a titration kill curve. Titration kill curves for chicken embryonic stem cells are established by exposing cells in culture to puromycin concentrations varying from 0.0 to 1.0 μg/ml for 10 days (Table 7) and neomycin concentrations varying from 0.0 to 200 μg/ml (Table 8). The medium is changed every 2 days and fresh puromycin or neomycin is added. […] Puromycin concentrations of 0.3-1.0 μg/ml are used for selection of the transfected cultures. Neomycin concentrations over 40 μg/ml eliminated all cES cells within 7 days (Table 8).

COc1ccc(C[C@H](N)C(=O)N[C@H]2[C@@H](O)[C@H](n3cnc4c(N(C)C)ncnc43)O[C@@H]2CO)cc1 [puromycin]
presence of ES cells (0.3 μg/ml puromycin, 3 changes of medium over a six day period): absent from all wells
Morphology of cES cells (puromycin 0.1 μg/ml, day 1): ES
Morphology of cES cells (puromycin 0.1 μg/ml, day 2): ES
Morphology of cES cells (puromycin 0.1 μg/ml, day 3): ES
Morphology of cES cells (puromycin 0.1 μg/ml, day 4): ES
Morphology of cES cells (puromycin 0.1 μg/ml, day 5): ES
Morphology of cES cells (puromycin 0.1 μg/ml, day 6): ES
Morphology of cES cells (puromycin 0.1 μg/ml, day 7): ES
Morphology of cES cells (puromycin 0.1 μg/ml, day 8): ES
Morphology of cES cells (puromycin 0.1 μg/ml, day 9): ES
Morphology of cES cells (puromycin 0.1 μg/ml, day 10): ES
Morphology of cES cells (puromycin 0.2 μg/ml, day 1): ES
Morphology of cES cells (puromycin 0.2 μg/ml, day 2): ES
Morphology of cES cells (puromycin 0.2 μg/ml, day 3): ES
Morphology of cES cells (puromycin 0.2 μg/ml, day 4): ES
Morphology of cES cells (puromycin 0.2 μg/ml, day 5): ES
Morphology of cES cells (puromycin 0.2 μg/ml, day 6): ES
Morphology of cES cells (puromycin 0.2 μg/ml, day 7): ES
Morphology of cES cells (puromycin 0.2 μg/ml, day 8): ES
Morphology of cES cells (puromycin 0.2 μg/ml, day 9): ES
Morphology of cES cells (puromycin 0.2 μg/ml, day 10): ES
Morphology of cES cells (puromycin 0.25 μg/ml, day 1): ES
Morphology of cES cells (puromycin 0.25 μg/ml, day 2): ES
Morphology of cES cells (puromycin 0.25 μg/ml, day 3): ES
Morphology of cES cells (puromycin 0.25 μg/ml, day 4): ES
Morphology of cES cells (puromycin 0.25 μg/ml, day 5): ES
Morphology of cES cells (puromycin 0.25 μg/ml, day 6): diff
Morphology of cES cells (puromycin 0.25 μg/ml, day 7): diff
Morphology of cES cells (puromycin 0.25 μg/ml, day 8): diff/
Morphology of cES cells (puromycin 0.25 μg/ml, day 9): diff/
Morphology of cES cells (puromycin 0.25 μg/ml, day 10): diff/
Morphology of cES cells (puromycin 0.3 μg/ml, day 1): ES
Morphology of cES cells (puromycin 0.3 μg/ml, day 2): ES
Morphology of cES cells (puromycin 0.3 μg/ml, day 3): diff
Morphology of cES cells (puromycin 0.3 μg/ml, day 4): diff/
Morphology of cES cells (puromycin 0.3 μg/ml, day 5): diff/
Morphology of cES cells (puromycin 0.3 μg/ml, day 6): gone
Morphology of cES cells (puromycin 0.3 μg/ml, day 7): gone
Morphology of cES cells (puromycin 0.3 μg/ml, day 8): gone
Morphology of cES cells (puromycin 0.3 μg/ml, day 9): gone
Morphology of cES cells (puromycin 0.3 μg/ml, day 10): gone
Morphology of cES cells (puromycin 0.4 μg/ml, day 1): ES
Morphology of cES cells (puromycin 0.4 μg/ml, day 2): diff
Morphology of cES cells (puromycin 0.4 μg/ml, day 3): gone
Morphology of cES cells (puromycin 0.4 μg/ml, day 4): gone
Morphology of cES cells (puromycin 0.4 μg/ml, day 5): gone
Morphology of cES cells (puromycin 0.4 μg/ml, day 6): gone
Morphology of cES cells (puromycin 0.4 μg/ml, day 7): gone
Morphology of cES cells (puromycin 0.4 μg/ml, day 8): gone
Morphology of cES cells (puromycin 0.4 μg/ml, day 9): gone
Morphology of cES cells (puromycin 0.4 μg/ml, day 10): gone
Morphology of cES cells (puromycin 0.5 μg/ml, day 1): diff
Morphology of cES cells (puromycin 0.5 μg/ml, day 2): gone
Morphology of cES cells (puromycin 0.5 μg/ml, day 3): Gone
Morphology of cES cells (puromycin 0.5 μg/ml, day 4): gone
Morphology of cES cells (puromycin 0.5 μg/ml, day 5): gone
Morphology of cES cells (puromycin 0.5 μg/ml, day 6): gone
Morphology of cES cells (puromycin 0.5 μg/ml, day 7): gone
Morphology of cES cells (puromycin 0.5 μg/ml, day 8): gone
Morphology of cES cells (puromycin 0.5 μg/ml, day 9): gone
Morphology of cES cells (puromycin 0.5 μg/ml, day 10): gone
Morphology of cES cells (puromycin 0.6 μg/ml, day 1): diff
Morphology of cES cells (puromycin 0.6 μg/ml, day 2): gone
Morphology of cES cells (puromycin 0.6 μg/ml, day 3): gone
Morphology of cES cells (puromycin 0.6 μg/ml, day 4): gone
Morphology of cES cells (puromycin 0.6 μg/ml, day 5): gone
Morphology of cES cells (puromycin 0.6 μg/ml, day 6): gone
Morphology of cES cells (puromycin 0.6 μg/ml, day 7): gone
Morphology of cES cells (puromycin 0.6 μg/ml, day 8): gone
Morphology of cES cells (puromycin 0.6 μg/ml, day 9): gone
Morphology of cES cells (puromycin 0.6 μg/ml, day 10): gone
Morphology of cES cells (puromycin 0.7 μg/ml, day 1): diff
Morphology of cES cells (puromycin 0.7 μg/ml, day 2): gone
Morphology of cES cells (puromycin 0.7 μg/ml, day 3): gone
Morphology of cES cells (puromycin 0.7 μg/ml, day 4): gone
Morphology of cES cells (puromycin 0.7 μg/ml, day 5): gone
Morphology of cES cells (puromycin 0.7 μg/ml, day 6): gone
Morphology of cES cells (puromycin 0.7 μg/ml, day 7): gone
Morphology of cES cells (puromycin 0.7 μg/ml, day 8): gone
Morphology of cES cells (puromycin 0.7 μg/ml, day 9): gone
Morphology of cES cells (puromycin 0.7 μg/ml, day 10): gone
Morphology of cES cells (puromycin 0.8 μg/ml, day 1): gone
Morphology of cES cells (puromycin 0.8 μg/ml, day 2): gone
Morphology of cES cells (puromycin 0.8 μg/ml, day 3): gone
Morphology of cES cells (puromycin 0.8 μg/ml, day 4): gone
Morphology of cES cells (puromycin 0.8 μg/ml, day 5): gone
Morphology of cES cells (puromycin 0.8 μg/ml, day 6): gone
Morphology of cES cells (puromycin 0.8 μg/ml, day 7): gone
Morphology of cES cells (puromycin 0.8 μg/ml, day 8): gone
Morphology of cES cells (puromycin 0.8 μg/ml, day 9): gone
Morphology of cES cells (puromycin 0.8 μg/ml, day 10): gone

— patent US9144229B2, “Tissue specific expression of antibodies in chickens” (Synageva BioPharma Corp., priority 2002, dated 2015)
